This is an account of results in patent US8835476B2, “Synthesis of novel antimicrobials” (priority 2005, dated 2014).

Holding throughout (test): Broth microdilution MIC, ATCC strains
What all share (type): cell-based

In one experiment the test system is P. mirabilis ATCC 29245. To be noted: Proteus mirabilis, ATCC29245; P. mirabilis ATCC 29245; read-out: MIC (growth inhibition, microdilution method). The method, boiled down:
(§1)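 Clinical organisms, randomly drawn NAUTICA urinary isolates, and ATCC reference strains tested by NCCLS M7-A6 broth microdilution at 5×10^5 CFU/ml. Incubation 16 to 20 hours, 35° C, ambient air; MIC defined as lowest concentration without visible growth.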

A further experiment concerns S. warneri ATCC 27836. The note with it: Staphylococcus warneri, ATCC27836; S. warneri ATCC 27836; read-out: MIC (growth inhibition, microdilution method). The method, boiled down: as §1
Background: Broth dilution looks for growth in wells or tubes with falling amounts of substance.

A further experiment concerns S. aureus ATCC 29213. To be noted: for MIC: Staphylococcus aureus, ATCC29213, S. aureus ATCC 29213, read-out: MIC (growth inhibition, microdilution method). The method, boiled down: as §1
In a further experiment the test system is E. cloacae ATCC 23355. To be noted: Enterobacter cloacae, ATCC23355; E. cloacae ATCC 23355; read-out: MIC (growth inhibition, microdilution method). The method, boiled down: as §1
The subject of a further experiment is E. aerogenes ATCC 13048. To be noted: Klebsiella aerogenes, ATCC13048; E. aerogenes ATCC 13048; read-out: MIC (growth inhibition, microdilution method). The method, boiled down:
as §1

The subject of the next experiment is E. faecium ATCC 35667. The note with it: Enterococcus faecium, ATCC35667, read-out: MIC (growth inhibition, microdilution method). The method, boiled down:
as §1

In another experiment the test system is S. simulans ATCC 27848. To be noted: Staphylococcus simulans, ATCC27848, read-out: MIC (growth inhibition, microdilution method). The method, boiled down:
as §1

The next experiment concerns B. cepacia ATCC 25416. The note with it: Burkholderia cepacia, ATCC25416; B. cepacia ATCC 25416; read-out: MIC (growth inhibition, microdilution method). The method, boiled down: as §1
The subject of the next experiment is P. vulgaris ATCC 49132. The note with it: Proteus vulgaris, ATCC49132; P. vulgaris ATCC 49132; read-out: MIC (growth inhibition, microdilution method). The method, boiled down: as §1
Experiment [1] concerns Ps. aeruginosa ATCC 27853. To be noted: Pseudomonas aeruginosa, ATCC27853; Ps. aeruginosa ATCC 27853; read-out: MIC (growth inhibition, microdilution method). The method, boiled down:
as §1

Another experiment deals with E. faecalis ATCC 29212. To be noted: Enterococcus faecalis, read-out: MIC (growth inhibition, microdilution method). The method, boiled down:
as §1

For experiment [2], the system named is S. liquefaciens ATCC 27592. The note with it: S. liquefaciens ATCC 27592; read-out: MIC (growth inhibition, microdilution method). The method, boiled down:
as §1

A further experiment deals with Pr. stuartii ATCC 33672. The note with it: Providencia stuartii, ATCC33672; Pr. stuartii ATCC 33672; read-out: MIC (growth inhibition, microdilution method). The method, boiled down: as §1
For experiment [3], the system named is S. epidermidis ATCC 14990. The note with it: Staphylococcus epidermidis, ATCC14990; S. epidermidis ATCC 14990; read-out: MIC (growth inhibition, microdilution method). The method, boiled down:
as §1

A further experiment relates to E. coli ATCC 25922. The note with it: for MIC: Escherichia coli, ATCC25922, E. coli ATCC 25922, read-out: MIC (growth inhibition, microdilution method). The method, boiled down: as §1
Another experiment concerns A. anitratus ATCC 19606. The note with it: Acinetobacter calcoaceticus, ATCC19606; A. anitratus ATCC 19606; read-out: MIC (growth inhibition, microdilution method). The method, boiled down:
as §1

In experiment [4] the test system is S. saprophyticus ATCC 15305. The note with it: Staphylococcus saprophyticus, ATCC15305; S. saprophyticus ATCC 15305; read-out: MIC (growth inhibition, microdilution method). The method, boiled down:
as §1

In a further experiment the test system is S. marcescens ATCC 8100. To be noted: Serratia marcescens, ATCC8100; S. marcescens ATCC 8100; read-out: MIC (growth inhibition, microdilution method). The method, boiled down: as §1
A further experiment relates to MRSA ATCC 33591. The note with it: Staphylococcus aureus; MRSA ATCC 33591; read-out: MIC (growth inhibition, microdilution method). The method, boiled down:
as §1

The subject of another experiment is K. oxytoca ATCC 49131. To be noted: Klebsiella oxytoca, ATCC49131; K. oxytoca ATCC 49131; read-out: MIC (growth inhibition, microdilution method). The method, boiled down:
as §1

The next experiment relates to K. pneumoniae ATCC 13883. The note with it: Klebsiella pneumoniae, ATCC13883; K. pneumoniae ATCC 13883; read-out: MIC (growth inhibition, microdilution method). The method, boiled down: as §1
In experiment [5] the test system is S. maltophilia ATCC 13637. The note with it: Stenotrophomonas maltophilia, ATCC13637; S. maltophilia ATCC 13637; read-out: MIC (growth inhibition, microdilution method). The method, boiled down:
as §1

The mark [6] stands for this setting: ATCC29212, E. faecalis ATCC 29212.
Where [7] appears, read: ATCC29212, E. faecalis, ATCC number not given.

Values after ≈ are worked out from the molar mass of the structure shown. Read-outs that look alike come from different tables or passages of the source.

In the case of `O=C(O)c1cc(-c2nn[nH]n2)cs1` [DNM-116, 4-(2H-Tetrazol-5-yl)-thiophene-2-carboxylic acid], the MIC (as a rule, the least concentration at which growth counts as inhibited) in the experiment on P. mirabilis ATCC 29245 came out at 32 µg/mL (≈ 163 µM); in the experiment on S. warneri ATCC 27836, 32 µg/mL (≈ 163 µM); in the experiment with S. aureus ATCC 29213 it was 32 µg/mL (≈ 163 µM); in the experiment with E. cloacae ATCC 23355 it was 16 µg/mL (≈ 81.6 µM); with E. aerogenes ATCC 13048, 16 µg/mL (≈ 81.6 µM); in the experiment on E. faecium ATCC 35667, 8 µg/mL (≈ 40.8 µM). Further, the MIC is over 32 µg/mL in the experiment on S. simulans ATCC 27848; 16 µg/mL (≈ 81.6 µM) in the experiment with B. cepacia ATCC 25416; 32 µg/mL (≈ 163 µM) in the experiment with P. vulgaris ATCC 49132; 16 µg/mL (≈ 81.6 µM) in [1]; 8 µg/mL (≈ 40.8 µM) in the experiment with E. faecalis ATCC 29212 (setting [6]); 8 µg/mL (≈ 40.8 µM) in the experiment on E. faecalis ATCC 29212 (setting [7]). In addition, the MIC in experiment [2] is 16 µg/mL (≈ 81.6 µM); in the experiment with Pr. stuartii ATCC 33672 it was 32 µg/mL (≈ 163 µM); in [3], 16 µg/mL (≈ 81.6 µM); with E. coli ATCC 25922, 16 µg/mL (≈ 81.6 µM); in the experiment on A. anitratus ATCC 19606, 16 µg/mL (≈ 81.6 µM); in experiment [4] it was 16 µg/mL (≈ 81.6 µM). Moreover, the minimum inhibitory concentration (MIC) in the experiment on S. marcescens ATCC 8100 is 16 µg/mL (≈ 81.6 µM); in the experiment on MRSA ATCC 33591, over 32 µg/mL; with K. oxytoca ATCC 49131 it was 16 µg/mL (≈ 81.6 µM); in the experiment on K. pneumoniae ATCC 13883, 16 µg/mL (≈ 81.6 µM); in experiment [5], 16 µg/mL (≈ 81.6 µM). The figures for the “MIC (growth inhibition, microdilution method)” value in the experiment on S. aureus ATCC 29213 (S. aureus ATCC 29213) and in the experiment with E. coli ATCC 25922 (E. coli ATCC 25922) were over 32 µg/mL and 8 µg/mL (≈ 40.8 µM), respectively.

As to `Cn1nnc(-c2cc(-c3ccc(F)cc3)sc2C(=O)O)n1` [DNM-142, 5-(4-Fluoro-phenyl)-3-(2-methyl-2H-tetrazol-5-yl)-thiophene-2-carboxylic acid], the MIC in the experiment with P. mirabilis ATCC 29245, in the experiment with S. warneri ATCC 27836, in the experiment with S. aureus ATCC 29213, in the experiment on E. cloacae ATCC 23355, with E. aerogenes ATCC 13048 and in the experiment with E. faecium ATCC 35667 was over 16 µg/mL throughout. For the same molecule, the MIC (with S. simulans ATCC 27848; in the experiment with B. cepacia ATCC 25416; in the experiment with P. vulgaris ATCC 49132; in [1]; with E. faecalis ATCC 29212 (setting [6]); in the experiment with E. faecalis ATCC 29212 (setting [7])) was over 16 µg/mL throughout. In addition, the MIC (in experiment [2]; with Pr. stuartii ATCC 33672; in experiment [3]; in the experiment on E. coli ATCC 25922; with A. anitratus ATCC 19606; in [4]) was over 16 µg/mL in each case. In addition, the MIC (in the experiment with S. marcescens ATCC 8100; in the experiment on MRSA ATCC 33591; in the experiment with K. oxytoca ATCC 49131; in the experiment on K. pneumoniae ATCC 13883; in experiment [5]) was over 16 µg/mL in each case.

Take `Cn1nnc(-c2cc(-c3ccc(F)cc3)sc2-c2ccc(F)cc2)n1` [DNM-132, 5-(2,5-bis(4-fluorophenyl)thiophen-3-yl)-2-methyl-2H-tetrazole]: the MIC in the experiment with P. mirabilis ATCC 29245, with S. warneri ATCC 27836, in the experiment on S. aureus ATCC 29213, in the experiment with E. cloacae ATCC 23355, in the experiment on E. aerogenes ATCC 13048 and in the experiment with E. faecium ATCC 35667 was over 16 µg/mL each time. Moreover, the MIC (in the experiment on S. simulans ATCC 27848; in the experiment on B. cepacia ATCC 25416; in the experiment with P. vulgaris ATCC 49132; in [1]; in the experiment with E. faecalis ATCC 29212 (setting [6]); in the experiment on E. faecalis ATCC 29212 (setting [7])) was over 16 µg/mL throughout. For the same molecule, the MIC (in [2]; in the experiment on Pr. stuartii ATCC 33672; in experiment [3]; in the experiment with E. coli ATCC 25922; in the experiment on A. anitratus ATCC 19606; in experiment [4]) was over 16 µg/mL throughout. Besides, the MIC (in the experiment with S. marcescens ATCC 8100; in the experiment on MRSA ATCC 33591; in the experiment on K. oxytoca ATCC 49131; in the experiment with K. pneumoniae ATCC 13883; in experiment [5]) was over 16 µg/mL in each case.
